Data published in patent US7595395B2, “Gabaergic agents to treat memory deficits” (priority 2005, dated 2009).
Like-named read-outs stand apart in the source and are kept apart here.

Key:
[1] = biological target: T1, α2β3γ2 benzodiazepine receptor GABA(A) isoform (UniProt P18507+P47869); experiment: Radioligand competition binding, α2β3γ2 BzR/GABA(A) isoform; design: species or system human and rat; conditions: means of two determinations, read-out: Ki α2
T1 sequence (P18507 1-475): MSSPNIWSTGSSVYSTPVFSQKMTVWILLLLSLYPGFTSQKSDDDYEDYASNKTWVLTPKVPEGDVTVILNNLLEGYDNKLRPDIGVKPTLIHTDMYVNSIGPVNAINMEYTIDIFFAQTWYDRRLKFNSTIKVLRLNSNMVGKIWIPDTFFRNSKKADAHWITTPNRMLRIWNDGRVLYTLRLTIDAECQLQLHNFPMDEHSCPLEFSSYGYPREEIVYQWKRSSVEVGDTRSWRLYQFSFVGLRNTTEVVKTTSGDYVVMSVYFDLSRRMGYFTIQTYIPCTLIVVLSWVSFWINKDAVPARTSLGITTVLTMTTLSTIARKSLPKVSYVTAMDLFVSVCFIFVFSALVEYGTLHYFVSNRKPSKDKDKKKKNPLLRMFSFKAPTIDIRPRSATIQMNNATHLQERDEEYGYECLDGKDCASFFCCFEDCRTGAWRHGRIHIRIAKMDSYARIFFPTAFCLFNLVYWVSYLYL
T1 sequence (P47869 1-451): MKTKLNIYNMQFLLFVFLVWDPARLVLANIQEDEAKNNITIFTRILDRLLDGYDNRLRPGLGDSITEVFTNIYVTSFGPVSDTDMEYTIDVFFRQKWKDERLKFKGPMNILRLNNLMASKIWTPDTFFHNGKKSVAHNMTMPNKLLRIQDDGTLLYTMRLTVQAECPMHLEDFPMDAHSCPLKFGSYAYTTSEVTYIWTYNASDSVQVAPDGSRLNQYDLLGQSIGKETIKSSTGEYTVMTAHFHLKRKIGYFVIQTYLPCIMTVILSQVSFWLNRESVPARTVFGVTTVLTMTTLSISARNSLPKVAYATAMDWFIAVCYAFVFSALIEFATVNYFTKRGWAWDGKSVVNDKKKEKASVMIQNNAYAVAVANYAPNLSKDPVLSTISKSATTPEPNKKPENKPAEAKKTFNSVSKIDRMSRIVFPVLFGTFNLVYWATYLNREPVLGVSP
Experimental: (§1) The affinity of all ligands at the 6 major recombinant GABAA/BzR subtypes was measured by competition for [^3H]Ro15-1788 binding to HEK-T cells expressing both human and rat GABAA/Bz receptors of composition α1β2γ2 (α1), α2β2γ2 (α2), α3β2γ2 (α3), α4β2γ2 (α4), α5β2γ2 (α5) and α6β2γ2 (α6). It is well known that the β2 and β3 subunits can be interchanged with no effect on Bz ligand affinity or efficacy. […] These studies are similar to those performed in the laboratory of Bryan Roth who has already expressed the receptors employing the work of Kucken et. al. and Gray et. al.
(§2) In brief, for membrane preparations, the cells were scraped on to the ice and diluted into 5 mL of phosphate buffered saline (pH=7.40) and cells pelleted by centrifugation for 5 min. at 4° C. The pellet was resuspended in 1 mL of 50 mM Tris-acetate buffer (pH 7.4) and centrifuged at 18,000 g for 20 min. […] Each pellet were diluted to 6 mL and then 100 μL of membranes were incubated with approximately 1 nM final concentration of [^3H]Ro 15-1788 in a total volume of 250 μL together with serial dilutions of test compound for 90 min. on ice. The membranes were harvested in polyethyleneimine-pretreated Whatman GF/C filters and after drying and addition of scintillation cocktail, counted in a scintillation counter. The cpm retained on the filters was plotted against log concentration (M) and fitted to one site competition equation to obtain the Ki using Graphpad Prizm (V4.0) using the Cheng-Prusoff approximation.

[2] = biological target: α6β3γ2 benzodiazepine receptor GABA(A) isoform (UniProt P18507+Q16445); experiment: Radioligand competition binding, α6β3γ2 BzR/GABA(A) isoform; design: species or system human and rat; conditions: means of two determinations, read-out: Ki α6
Experimental: as §1, §2

[3] = biological target: T2, α3β3γ2 benzodiazepine receptor GABA(A) isoform (UniProt P18507+P34903); experiment: Radioligand competition binding, α3β3γ2 BzR/GABA(A) isoform; design: species or system human and rat; conditions: means of two determinations, read-out: Ki α3
T2 sequence (P18507 1-475): T1 sequence (P18507 1-475)
T2 sequence (P34903 1-492): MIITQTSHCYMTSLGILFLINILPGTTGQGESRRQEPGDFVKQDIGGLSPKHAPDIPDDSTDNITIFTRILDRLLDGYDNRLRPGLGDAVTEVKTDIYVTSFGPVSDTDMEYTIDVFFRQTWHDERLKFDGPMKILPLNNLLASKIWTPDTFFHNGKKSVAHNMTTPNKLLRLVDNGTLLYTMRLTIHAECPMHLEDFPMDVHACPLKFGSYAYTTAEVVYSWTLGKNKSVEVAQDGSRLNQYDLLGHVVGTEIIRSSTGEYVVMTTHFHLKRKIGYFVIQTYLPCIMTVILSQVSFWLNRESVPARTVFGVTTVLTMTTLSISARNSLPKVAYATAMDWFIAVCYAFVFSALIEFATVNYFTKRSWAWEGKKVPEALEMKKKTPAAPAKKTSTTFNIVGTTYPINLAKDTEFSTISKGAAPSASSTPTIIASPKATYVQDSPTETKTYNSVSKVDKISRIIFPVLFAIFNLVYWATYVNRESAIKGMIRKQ
Experimental: as §1, §2

[4] = biological target: T3, α5β3γ2 benzodiazepine receptor GABA(A) isoform (UniProt P18507+P31644); experiment: Radioligand competition binding, α5β3γ2 BzR/GABA(A) isoform; design: Ki α5; means of two determinations; Ki α5; α5; other: text; species or system human and rat
T3 sequence (P18507 1-475): T1 sequence (P18507 1-475)
T3 sequence (P31644 1-462): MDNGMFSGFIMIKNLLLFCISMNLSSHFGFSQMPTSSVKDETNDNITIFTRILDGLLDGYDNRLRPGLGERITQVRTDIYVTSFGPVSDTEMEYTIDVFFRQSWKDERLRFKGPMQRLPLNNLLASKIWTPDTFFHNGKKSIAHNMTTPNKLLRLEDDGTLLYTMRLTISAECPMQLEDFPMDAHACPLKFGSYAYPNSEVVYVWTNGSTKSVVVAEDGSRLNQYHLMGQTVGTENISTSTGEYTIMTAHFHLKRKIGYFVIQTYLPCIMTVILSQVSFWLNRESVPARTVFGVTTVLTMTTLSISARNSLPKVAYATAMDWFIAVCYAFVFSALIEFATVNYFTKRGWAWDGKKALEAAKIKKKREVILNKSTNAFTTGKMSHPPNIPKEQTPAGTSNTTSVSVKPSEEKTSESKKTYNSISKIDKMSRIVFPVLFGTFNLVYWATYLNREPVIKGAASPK

[5] = biological target: T4, α1β3γ2 benzodiazepine receptor GABA(A) isoform (UniProt P14867+P18507); experiment: Radioligand competition binding, α1β3γ2 BzR/GABA(A) isoform; design: Ki α1; means of two determinations; Ki α1; α1; species or system human and rat; conditions: means of two determinations, read-out: Ki α1
T4 sequence (P14867 1-456): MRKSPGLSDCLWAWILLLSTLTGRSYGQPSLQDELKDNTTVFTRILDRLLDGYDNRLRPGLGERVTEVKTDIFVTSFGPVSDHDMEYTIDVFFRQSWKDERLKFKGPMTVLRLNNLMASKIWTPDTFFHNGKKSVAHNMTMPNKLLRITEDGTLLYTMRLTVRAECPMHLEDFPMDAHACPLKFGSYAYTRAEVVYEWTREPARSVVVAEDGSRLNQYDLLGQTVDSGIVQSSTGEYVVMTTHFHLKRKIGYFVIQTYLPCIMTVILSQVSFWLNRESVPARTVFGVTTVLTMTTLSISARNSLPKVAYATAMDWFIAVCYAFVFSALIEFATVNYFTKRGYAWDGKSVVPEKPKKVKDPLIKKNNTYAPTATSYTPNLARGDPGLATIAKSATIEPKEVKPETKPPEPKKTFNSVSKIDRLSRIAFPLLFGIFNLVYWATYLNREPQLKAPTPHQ
T4 sequence (P18507 1-475): T1 sequence (P18507 1-475)
Experimental: as §1, §2

[6] = tested on: alcohol preferring rats (P) and high alcohol drinking rats (HAD); conditions: cited from earlier work
GABAA/α1 receptors = GABAA/α1 receptors (Homo sapiens, UniProt P14867+P18507); conditions: Huang et al. 2000; cited from earlier work
[7] = read-out: Ki α5; Table 2; means of two determinations
[8] = read-out: Ki α5; Table I; means of two determinations
[9] = Table 2; means of two determinations; read-out: Ki α5

Sequence of GABAA/α1 receptors (P28472 26-473 partner, one chain of several): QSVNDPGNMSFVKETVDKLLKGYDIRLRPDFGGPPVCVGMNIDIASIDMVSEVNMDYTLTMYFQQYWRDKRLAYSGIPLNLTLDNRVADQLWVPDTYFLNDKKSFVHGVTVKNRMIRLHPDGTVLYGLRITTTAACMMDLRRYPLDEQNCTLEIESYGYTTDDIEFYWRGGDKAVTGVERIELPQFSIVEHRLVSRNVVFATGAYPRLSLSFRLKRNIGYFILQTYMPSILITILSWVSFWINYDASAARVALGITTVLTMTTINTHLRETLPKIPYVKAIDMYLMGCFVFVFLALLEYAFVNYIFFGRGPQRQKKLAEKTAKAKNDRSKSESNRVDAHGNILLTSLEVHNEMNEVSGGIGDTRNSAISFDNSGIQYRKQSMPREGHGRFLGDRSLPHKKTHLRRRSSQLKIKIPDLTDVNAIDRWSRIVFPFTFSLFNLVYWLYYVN

SMILES	Ki ([1]; Table 2) [nM]	Ki ([2]; Table 2) [nM]	Ki ([3]; Table 2) [nM]	Ki ([5]; Table 2) [nM]	Ki ([1]; Table I) [nM]	Ki ([2]; Table I) [nM]	Ki ([3]; Table I) [nM]	Ki [4, 8] [nM]	Ki ([5]; Table I) [nM]	also measured
CCOC(=O)c1ncoc1-c1ncn2c1[C@@H]1CCN1C(=O)c1cc(C#C[Si](C)(C)C)ccc1-2 [RY068]	877	> 1000	496	> 500						Ki [4, 7]: 37 nM
CC(C)(C)OC(=O)c1cc2c(cn1)[nH]c1ccccc12 [BCCt, β-carboline-3-carboxylate-tbutyl ester]										alcohol self administration (in words) ([6]; P and HAD rats, June et al. 2003, Foster et al. 2004): potently reduced alcohol self administration; anxiolytic activity (in words) ([6]; P and HAD rats): exhibits anxiolytic activity; sedative-hypnotic effects of alcohol (in words) ([6]; P rats and HAD rats): antagonized the sedative-hypnotic effects of alcohol; selectivity for α1 over other BzR subtypes (GABAA/α1 receptors): 20 fold
CN1Cc2c(CCl)ncn2-c2ccc(Cl)cc2C1=O [Ligand 12b]					> 300	> 300	> 300	28.5	> 300	
C#CC#Cc1ccc2c(c1)C(=O)N1CCC[C@H]1c1c(C(=O)OCC)ncn1-2 [Ligand 14]								64		
C#Cc1ccc2c(c1)C(=O)N1CC[C@H]1c1c(-c3ocnc3C(=O)OCC)ncn1-2 [RY069]	622	> 1000	506	692						Ki [4, 7]: 19 nM
C#Cc1ccc2c(c1)C(=O)N1CC[C@@H]1c1c(-c3nc(C)no3)ncn1-2 [RY-I-29]	> 1000	> 1000	> 1000	> 1000	> 1000	> 1000	> 1000		> 1000	Ki [4, 9]: 157 nM; Ki ([4]; Table I; means of two determinations; read-out: Ki α5): 157 nM
CCOCc1ncn2c1CN(C)C(=O)c1cc(Cl)ccc1-2 [Ligand 12c]					> 300	> 300	> 300	82.7	> 300	
CCOC(=O)c1ncoc1-c1ncn2c1[C@@H]1CCN1C(=O)c1cc(Br)ccc1-2 [RY062]	> 1000	> 2000	> 500	> 1000						Ki [4, 9]: 172 nM
